Assay results as given in patent US20230321063A1, “COMPOSITIONS AND METHODS TO REDUCE NEUROINFLAMMATION” (Seattle Children's Hospital d/b/a Seattle Children's …, priority 2020, published 2023).

How the values were obtained:
Ndufs4(KO) mice [1] = assay: Rotarod induced seizures; format: in vivo, mouse
Procedure: Rotarod and rotarod seizures. Rotarod assays were performed using a Med Associates Inc. (Fairfax, VT) ENV-571M single lane rotarod with a black mat installed in the floor of the lane to reduce visibility of the bottom. Assays were performed by placing animals onto an already rotating rod and timing latency to fall, with a steady rotation speed set to 6 rpm (controlled by attached laptop and Med Associates software). The maximum time of each trial was 10 min, with the trial ending at that time if mice were still on the rotarod. For each assay, three trials were performed, with a minimum of 5 min between each assay. The best of the three trials was reported for the rotarod data. As detailed in the text and figure legends, rotarod was performed each 10 days of age from P30; mice in a given age group were the reported age +/−1 day.
Mice were monitored throughout each assay for seizure activity, and rotarod performance trials were ended if a seizure was observed. […]

Ndufs4(KO) mice [2] = assay: Body weight, growth and cachexia onset; format: in vivo, mouse
Procedure: (§1) Ndufs4(+/−) mice were bred to produce Ndufs4(KO) (Ndufs4(−/−)) offspring. Mice were weaned at 20-21 days of age. Ndufs4(KO) animals were housed with a minimum of one control littermate for warmth and stimulation. Mice were weighed, and health assessed, a minimum of 3 times per week, every other day (daily for IP injected mice, see herein). Where longitudinal blood point-of-care data was collected, this was performed during these health checks. Wetted chow in a dish on the bottom of each cage, and in-cage water bottles, were provided to all cages housing Ndufs4(KO) mice following the onset of disease so that the ability to find or reach food or water was not a limiting factor for survival.
Cachexia in FIG. 4H and FIG. 6E is the day of life when weight peaks prior to the progressive weight loss which occurs in untreated Ndufs4(KO) animals.

[3] = cited from earlier work
[4] = tested on: Ndufs4(KO) mouse model of LS; assay: Survival studies and overall disease course in Ndufs4(KO) mice; format: in vivo
Procedure: as §1
Doses of each drug was based on published data for use in animals. […] Blood and tissue concentrations reached biologically relevant levels for each of the tested inhibitors.
Pharmacologic interventions and chow formulation. Standard mouse chow was ground to a power and mixed with drugs at the doses desired (see FIGS. 4A-4L). 300 mL of 1% agar melted in sterile water was added per kilogram of powdered chow and the mixture was pelleted and baked at 37° C. for 3-5 hours to dry. Pellets were then stored at 4° C. for short term (up to 90 days) or −20° C. for long-term (up to 6 months) storage. It was previously shown that this processing had no impact on animal health or survival (Johnson et al. Front Genet. 2015; 6:247). […]
To determine whether the benefits of mTOR inhibition in Ndufs4(KO) model result from disruption of PI3K mediated signaling, animals were treated from weaning (post-natal day 21, P21) with potent, orally available, isoform specific inhibitors of the catalytic subunits of PI3K: BYL719, GSK2636771, CAL-101, and IPI-549, inhibitors of p110α, p110β, p110δ, and p110γ, respectively.

Ndufs4(KO) mice [5] = assay: Minimum Alveolar Concentration (MAC) of isoflurane associated with anesthesia; format: in vivo, mouse; settings: 300 mg/kg/day, P30 Ndufs4(KO) animals
From the text: In particular embodiments, effective amounts can be evidenced by reduced sensitivity to volatile anesthetics. Sensitivity to volatile anesthetics can be determined by measuring the minimum alveolar concentration (MAC). MAC provides a correlation between the dose of an anesthetic and immobility. (Lobo et al. (2020) StatPearls, World Wide Web at ncbi.nlm.nih.gov/books/NBK532974/). […] MAC can be expressed as volumes percent of alveolar (end-tidal) gas at one atmosphere pressure at sea level (i.e., 760 mm Hg). In particular embodiments, volatile anesthetics can include nitrous oxide, isoflurane, desflurane, halothane, and sevoflurane. Mice can be exposed to an anesthetic by using a vaporizer at a particular flow rate (e.g., 3-4 liters/min) through a humidifier in-line. […] In particular embodiments, sensitivity to volatile anesthetics can be reduced in a subject administered a composition including a therapeutically effective amount of an inhibitor of the disclosure, as compared to sensitivity to volatile anesthetics in the subject not administered the composition, as measured by a relevant test such as MAC.
To test whether leukocyte depletion might impact VA hypersensitivity, the Minimum Alveolar Concentration (MAC) of isoflurane associated with anesthesia in control and 300 mg/kg/day pexidartinib treated Ndufs4(KO) animals was assessed (see Experimental Methods in Example 1 for details). […]

[6] = tested on: control and Ndufs4(KO) mice; assay: Plasma ALT and AST enzymatic activity assays; format: in vivo, mouse; settings: 300 mg/kg/day, both genotypes
Procedure: Plasma ALT and AST measures. Small volumes (5-10 μL) of blood were collected using tail-prick and heparinized microhematocrit tubes (Fisher Scientific cat. #22-362566), placed on ice in 15 mL sample tubes, then moved (by pipette) into 1.5 mL microcentrifuge tubes and stored at −80° C. until used for ALT and AST enzymatic assays. ALT and AST were quantified using colorimetric enzymatic activity assay kits (Sigma, cat. #'s MAK052 and MAK055, respectively) according to manufacturer recommendations. Absorbance was measured on a NanoDrop 1000 (ThermoScientific).

In the case of `FC(F)(F)c1ccc(CNc2ccc(Cc3c[nH]c4ncc(Cl)cc34)cn2)cn1` [pexidartinib, 5-[(5-chloro-1H-pyrrolo[2,3-b]pyridin-3-yl)methyl]-N-[[6-(trifluoromethyl)pyridin-3-yl]methyl]pyridin-2-amine], the time-to-seizure (Ndufs4(KO) mice [1]; Ndufs4(KO) mice at P30, rotarod assay) is reported as “markedly reduced”, the “incidence of rotarod induced seizures” value (Ndufs4(KO) mice [1]; Ndufs4(KO) mice at P30, untreated 30%) is reported as “markedly reduced” and the cachexia (Ndufs4(KO) mice [2]) is reported as “prevented”. For the same compound, the liver damage ([3]; patients) was “known to cause liver damage”, the “hair color in humans” value ([3]; reports in humans) was “hair whitening in humans” and the “lifespan of treated Ndufs4(KO) animals relative to treated control mice” value ([4]; 300 mg/kg/d, drug toxicity appears to limit lifespan) was “live as long as treated control mice”. The “impact on disease (overall) / disease or survival” value ([4]; Ndufs4(KO) mice) was “dramatically attenuates disease”, the survival ([4]; Ndufs4(KO) mice vs untreated) was “dramatically extended survival” and the “extension of median survival” value ([4]; Ndufs4(KO) mice, 300 mg/kg/day in chow) was 300%. For the same compound, the “cause of death of control animals” value ([4]; control animals on 300 mg/kg/d) was “died of unknown causes with no evident illness”, the “survival compared to untreated Ndufs4(KO) mice” value ([4]; each of 100-300 mg/kg/day, dose-dependent) was “statistically significant increase” and the “overt signs of severe neurologic sequelae prior to death” value ([4]; majority of high dose animals) was “did not show overt signs of severe neurologic sequelae prior to death”. For the same compound, the “hypersensitivity to sedation by isoflurane (MAC)” value (Ndufs4(KO) mice [5]) was “modest, but statistically significant, attenuation”, the ALT level [6] was “significantly elevated” and the AST level [6] was “significantly elevated”.
